Assay results: ChEMBL document CHEMBL1201862, “PubChem BioAssay data set” (2004)
Active and inactive are the calls of the source.

Columns and labels:
Fatty acid synthase [1] = target: T1, Fatty acid synthase (Homo sapiens, UniProt P49327); assay: FAS thioesterase domain inhibitors, dose response, biochemical, endpoint fluorescence intensity, uHTS hits (AID 624327); type: functional;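 note: fluorescence from hydrolysis of an O-methyl fluorescein acyl ester substrate by the enzyme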
Fatty acid synthase [2] = target: T1, Fatty acid synthase; assay: FAS thioesterase domain inhibitors, dose response, biochemical, kinetic fluorescence intensity (AID 624326); type: functional;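 note: rate of fluorescence rise from hydrolysis of a fluorogenic O-methyl fluorescein ester substrate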
[3] = NIH-3T3 fibroblast cytotoxicity, dose response, cytotoxicity control, cell-based, fluorescence, Alamar Blue, secondary assay (AID 2327); type: functional;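 note: NIH-3T3 mouse fibroblasts cultured with fluconazole at 8 µg/mL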
[4] = C. albicans growth with fluconazole, confirmation, fluorescence, retest (AID 2467); type: functional, cell-based
Cytochrome P450 3A4 = Cytochrome P450 3A4 (Homo sapiens, UniProt P08684); settings: Potency;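 note: confirmatory qHTS run detecting inhibitors and substrates of CYP3A4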
Cytochrome P450 3A4, sequence (P08684 whole entry): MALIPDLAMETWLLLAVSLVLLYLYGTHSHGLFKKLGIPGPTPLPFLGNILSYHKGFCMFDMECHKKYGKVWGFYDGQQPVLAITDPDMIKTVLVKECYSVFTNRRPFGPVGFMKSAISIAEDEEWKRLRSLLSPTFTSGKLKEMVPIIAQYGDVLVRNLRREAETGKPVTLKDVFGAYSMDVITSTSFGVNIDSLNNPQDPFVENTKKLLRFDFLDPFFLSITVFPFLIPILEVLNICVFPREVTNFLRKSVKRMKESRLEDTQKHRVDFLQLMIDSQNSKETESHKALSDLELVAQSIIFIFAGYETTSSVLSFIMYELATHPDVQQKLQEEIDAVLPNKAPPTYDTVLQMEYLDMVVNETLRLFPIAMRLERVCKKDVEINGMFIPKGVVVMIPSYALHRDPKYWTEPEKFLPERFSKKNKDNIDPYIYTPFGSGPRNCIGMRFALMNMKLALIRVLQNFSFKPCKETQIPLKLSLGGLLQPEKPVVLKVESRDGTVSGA

[5] = target: T2, Replicative DNA helicase DnaB (Mycobacterium tuberculosis, UniProt P9WMR3); assay: DnaB intein splicing inhibitors, dose response, biochemical, cell-free fluorescence (AID 449749); type: functional
T2 sequence (P9WMR3 whole entry): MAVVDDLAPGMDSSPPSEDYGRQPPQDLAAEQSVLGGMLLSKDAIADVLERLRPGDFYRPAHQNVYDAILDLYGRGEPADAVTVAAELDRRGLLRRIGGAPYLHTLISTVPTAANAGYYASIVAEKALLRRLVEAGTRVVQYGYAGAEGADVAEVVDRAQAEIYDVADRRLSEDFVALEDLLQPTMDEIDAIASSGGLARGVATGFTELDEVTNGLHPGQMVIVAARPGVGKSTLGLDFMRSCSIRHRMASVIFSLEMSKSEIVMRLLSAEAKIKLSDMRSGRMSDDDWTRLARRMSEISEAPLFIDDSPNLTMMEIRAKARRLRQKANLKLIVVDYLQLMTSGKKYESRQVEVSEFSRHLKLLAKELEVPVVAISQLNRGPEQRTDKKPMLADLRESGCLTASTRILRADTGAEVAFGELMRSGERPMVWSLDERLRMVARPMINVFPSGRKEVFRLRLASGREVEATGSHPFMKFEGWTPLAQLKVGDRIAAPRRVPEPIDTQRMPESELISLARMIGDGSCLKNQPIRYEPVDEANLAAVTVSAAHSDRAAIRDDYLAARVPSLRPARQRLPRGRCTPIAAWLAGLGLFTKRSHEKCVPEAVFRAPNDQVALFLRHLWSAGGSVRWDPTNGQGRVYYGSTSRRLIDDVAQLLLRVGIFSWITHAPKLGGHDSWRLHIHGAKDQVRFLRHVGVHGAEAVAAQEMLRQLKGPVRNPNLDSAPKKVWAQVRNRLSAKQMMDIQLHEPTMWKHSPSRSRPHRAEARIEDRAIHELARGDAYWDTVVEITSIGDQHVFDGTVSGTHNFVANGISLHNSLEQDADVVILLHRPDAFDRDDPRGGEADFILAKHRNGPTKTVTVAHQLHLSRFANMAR

Protein RecA = target: T3, Protein RecA (Mycobacterium tuberculosis, UniProt P9WHJ3); assay: Fluorescence Cell-Free Homogeneous Dose Retest to Identify Inhibitors of RecA-Intein Splicing Activity. [Related pubchem assays (depositor defined):AID2097, AID2223, AID489010, AID492950]; type: functional
T3 sequence (P9WHJ3 whole entry): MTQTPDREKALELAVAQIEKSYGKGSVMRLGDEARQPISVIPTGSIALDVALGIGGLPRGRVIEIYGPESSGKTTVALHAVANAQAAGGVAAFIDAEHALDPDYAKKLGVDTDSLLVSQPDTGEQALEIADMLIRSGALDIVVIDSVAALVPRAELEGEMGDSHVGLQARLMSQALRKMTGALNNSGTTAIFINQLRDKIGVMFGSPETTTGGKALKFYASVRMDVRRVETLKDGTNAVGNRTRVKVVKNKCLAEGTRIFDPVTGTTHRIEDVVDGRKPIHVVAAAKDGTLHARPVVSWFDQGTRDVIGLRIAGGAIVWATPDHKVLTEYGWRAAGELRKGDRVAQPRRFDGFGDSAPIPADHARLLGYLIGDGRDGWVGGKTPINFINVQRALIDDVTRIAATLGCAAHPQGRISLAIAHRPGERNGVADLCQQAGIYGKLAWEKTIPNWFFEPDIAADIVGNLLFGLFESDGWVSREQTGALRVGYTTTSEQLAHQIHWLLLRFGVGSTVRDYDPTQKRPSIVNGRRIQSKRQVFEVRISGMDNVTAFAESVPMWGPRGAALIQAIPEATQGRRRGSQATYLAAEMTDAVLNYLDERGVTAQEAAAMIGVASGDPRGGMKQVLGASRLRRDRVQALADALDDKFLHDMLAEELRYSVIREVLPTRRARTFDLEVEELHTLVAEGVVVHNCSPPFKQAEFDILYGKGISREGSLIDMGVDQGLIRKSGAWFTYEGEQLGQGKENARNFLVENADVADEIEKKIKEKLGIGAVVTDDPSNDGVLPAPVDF

H9c2 = assay: cells; type: functional, cell-based; settings: Rattus norvegicus, H9c2, Myocardium;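 note: confirmatory concentration-response retest of ultra-high-throughput screening hits for modulation of myocardial damage; cell death induced by hydrogen peroxide oxidative stress; compound pretreatment for 60 min then peroxide exposure for 2 h; potency is for protecting the cells against peroxide damage rather than for killing them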
[6] = HEp-2 cell cytotoxicity, dose response, cytotoxicity control for RSV inhibitor project, HTS (AID 2410); type: functional; settings: human respiratory syncytial virus
[7] = Luminescence Cell-Based Dose Retest to Confirm Inhibitors of Cancer Stem Cells. [Related pubchem assays (depositor defined):AID2717, AID2721]; type: functional; settings: Homo sapiens
[8] = target: T4, Rac GTPase-activating protein 1 (Homo sapiens, UniProt Q9H0H5); assay: MgcRacGAP GTPase-activating activity inhibitors, confirmation, biochemical, ADP Hunter fluorescence, primary and confirmatory (AID 624330); type: functional
T4 sequence (Q9H0H5 whole entry): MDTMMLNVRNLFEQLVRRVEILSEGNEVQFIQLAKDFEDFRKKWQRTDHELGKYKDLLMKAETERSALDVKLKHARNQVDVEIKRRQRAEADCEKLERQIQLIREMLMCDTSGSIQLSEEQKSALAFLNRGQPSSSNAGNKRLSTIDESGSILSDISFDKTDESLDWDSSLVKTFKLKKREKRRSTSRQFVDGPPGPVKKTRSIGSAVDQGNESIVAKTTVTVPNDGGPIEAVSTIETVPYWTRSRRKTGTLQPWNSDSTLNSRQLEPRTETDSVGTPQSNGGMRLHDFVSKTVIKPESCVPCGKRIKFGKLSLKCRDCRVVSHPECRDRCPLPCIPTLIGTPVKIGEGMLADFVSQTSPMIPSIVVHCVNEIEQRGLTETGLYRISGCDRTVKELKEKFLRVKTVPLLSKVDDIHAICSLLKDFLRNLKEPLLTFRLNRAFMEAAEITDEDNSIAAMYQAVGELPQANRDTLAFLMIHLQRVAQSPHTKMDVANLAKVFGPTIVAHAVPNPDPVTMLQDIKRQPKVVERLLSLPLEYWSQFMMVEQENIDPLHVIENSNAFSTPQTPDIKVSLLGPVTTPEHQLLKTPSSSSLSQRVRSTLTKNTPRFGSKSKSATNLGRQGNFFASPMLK

T1 sequence (P49327 whole entry, the tested form may be a part): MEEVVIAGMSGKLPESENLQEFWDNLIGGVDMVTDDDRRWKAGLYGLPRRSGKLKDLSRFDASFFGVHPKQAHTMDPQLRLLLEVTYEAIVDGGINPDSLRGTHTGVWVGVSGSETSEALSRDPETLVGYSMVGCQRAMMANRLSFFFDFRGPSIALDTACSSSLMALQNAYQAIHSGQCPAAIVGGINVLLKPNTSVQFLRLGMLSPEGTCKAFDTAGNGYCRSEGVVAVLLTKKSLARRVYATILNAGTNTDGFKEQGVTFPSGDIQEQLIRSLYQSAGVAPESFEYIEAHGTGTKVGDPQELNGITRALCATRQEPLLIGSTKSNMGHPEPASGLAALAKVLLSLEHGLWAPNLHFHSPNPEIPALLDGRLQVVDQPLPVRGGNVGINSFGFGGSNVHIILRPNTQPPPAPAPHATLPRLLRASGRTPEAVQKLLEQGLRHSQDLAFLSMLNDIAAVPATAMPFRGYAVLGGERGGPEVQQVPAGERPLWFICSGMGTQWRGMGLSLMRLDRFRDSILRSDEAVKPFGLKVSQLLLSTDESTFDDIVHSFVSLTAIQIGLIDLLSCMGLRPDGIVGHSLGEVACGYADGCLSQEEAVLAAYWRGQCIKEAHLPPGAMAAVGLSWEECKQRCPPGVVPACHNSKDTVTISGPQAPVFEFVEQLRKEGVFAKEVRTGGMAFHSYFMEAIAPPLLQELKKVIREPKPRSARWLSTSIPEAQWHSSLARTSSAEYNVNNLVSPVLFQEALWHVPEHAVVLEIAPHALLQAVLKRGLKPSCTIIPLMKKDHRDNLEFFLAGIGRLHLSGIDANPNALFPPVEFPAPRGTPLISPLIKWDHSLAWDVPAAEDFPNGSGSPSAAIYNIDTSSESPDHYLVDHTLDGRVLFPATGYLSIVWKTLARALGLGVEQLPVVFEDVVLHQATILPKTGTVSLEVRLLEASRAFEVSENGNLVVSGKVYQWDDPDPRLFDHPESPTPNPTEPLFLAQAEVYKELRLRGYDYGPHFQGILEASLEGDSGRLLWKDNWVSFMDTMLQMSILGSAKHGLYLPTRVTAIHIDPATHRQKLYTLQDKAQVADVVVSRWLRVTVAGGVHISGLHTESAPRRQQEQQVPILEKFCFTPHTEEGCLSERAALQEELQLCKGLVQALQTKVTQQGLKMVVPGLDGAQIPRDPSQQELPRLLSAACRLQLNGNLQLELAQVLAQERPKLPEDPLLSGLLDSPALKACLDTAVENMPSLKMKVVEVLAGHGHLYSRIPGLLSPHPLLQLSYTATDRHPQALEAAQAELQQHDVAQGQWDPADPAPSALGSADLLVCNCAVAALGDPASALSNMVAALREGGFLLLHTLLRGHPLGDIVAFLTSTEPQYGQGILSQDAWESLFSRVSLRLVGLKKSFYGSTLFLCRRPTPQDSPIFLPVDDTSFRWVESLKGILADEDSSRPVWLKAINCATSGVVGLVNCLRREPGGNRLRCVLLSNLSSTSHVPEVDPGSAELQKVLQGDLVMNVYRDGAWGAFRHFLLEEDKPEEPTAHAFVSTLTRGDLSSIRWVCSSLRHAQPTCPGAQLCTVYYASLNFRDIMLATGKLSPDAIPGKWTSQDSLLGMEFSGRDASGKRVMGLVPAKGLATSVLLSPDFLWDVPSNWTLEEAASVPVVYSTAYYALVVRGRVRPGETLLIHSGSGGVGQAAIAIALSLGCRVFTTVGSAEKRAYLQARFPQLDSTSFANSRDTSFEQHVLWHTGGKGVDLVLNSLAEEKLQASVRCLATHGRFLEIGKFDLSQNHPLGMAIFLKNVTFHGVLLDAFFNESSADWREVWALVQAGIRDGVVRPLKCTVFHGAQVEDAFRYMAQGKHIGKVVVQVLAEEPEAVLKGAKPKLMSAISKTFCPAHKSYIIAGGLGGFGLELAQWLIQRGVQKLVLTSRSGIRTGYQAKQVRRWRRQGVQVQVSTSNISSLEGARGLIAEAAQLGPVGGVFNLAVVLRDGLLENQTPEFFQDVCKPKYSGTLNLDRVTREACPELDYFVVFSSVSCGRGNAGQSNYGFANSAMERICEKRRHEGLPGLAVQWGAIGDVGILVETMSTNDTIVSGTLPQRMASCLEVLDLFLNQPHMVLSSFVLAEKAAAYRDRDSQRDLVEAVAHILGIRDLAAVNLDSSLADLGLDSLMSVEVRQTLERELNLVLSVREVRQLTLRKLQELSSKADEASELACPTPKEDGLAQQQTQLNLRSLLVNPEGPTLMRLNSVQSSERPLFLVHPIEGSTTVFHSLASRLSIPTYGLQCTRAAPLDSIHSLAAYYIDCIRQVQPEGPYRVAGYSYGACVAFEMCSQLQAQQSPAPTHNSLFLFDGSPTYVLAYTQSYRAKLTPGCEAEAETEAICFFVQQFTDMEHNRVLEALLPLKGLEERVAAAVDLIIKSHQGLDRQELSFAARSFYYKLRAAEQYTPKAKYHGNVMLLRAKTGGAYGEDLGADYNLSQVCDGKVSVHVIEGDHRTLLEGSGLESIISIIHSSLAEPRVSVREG

Cc1csc(NC(=O)CCNC(=O)c2ccc([N+](=O)[O-])cc2)n1
IC50 (Fatty acid synthase [1]): 6.85 µM (active)
IC50 (Fatty acid synthase [2]): 7.66 µM (active)

O=S(=O)(Cc1ccccc1)N1CCc2ccccc21
EC50 [3]: > 160 µM (inactive)
EC50 [4]: 1.56 µM (active)

COC(=O)[C@@H]1C[C@H]2CC[C@H](O)C[C@H]2N1Cc1ccc(-c2ccccc2)cc1
AC50 (Cytochrome P450 3A4): 12.6 µM (inconclusive)

CCCc1n[nH]c2c1C(c1ccc(OC(=O)N3CCOCC3)cc1)C(C#N)=C(N)O2 (stereo unspecified)
AC50 [5]: 23.5 µM (active)
EC50 (Protein RecA): 11.8 µM (active)

NC(=O)c1ccc(NC(=O)COc2cccc3c2CCNC3=O)cc1
IC50 (H9c2): > 79 µM (inactive)

O=C(CNC(=O)c1[nH]cnc1C(=O)NCc1ccccc1)OCc1ccccc1
IC50 (H9c2): 40.4 µM (inactive)

COc1cc(-n2c(=O)c3ccccc3n(Cc3cc(=O)n4ccccc4n3)c2=O)cc(OC)c1OC
IC50 (H9c2): 18.7 µM (active)

N#C/C(=C\c1c(F)cccc1Cl)c1nn(-c2ccccc2)c(-n2cccc2)c1C#N
CC50 [6]: > 50 µM (active)
AC50 [7]: 0.966 µM (active)
AC50 [5]: 28.9 µM (active)
EC50 (Protein RecA): 1.34 µM (inconclusive)

CCN(CC)CCCn1c(-c2ccccc2)nc2c(NCc3ccccc3)nc(C)nc21
AC50 (Cytochrome P450 3A4): 10 µM (inconclusive)

COC(=O)[C@@H]1C[C@@]2(O)[C@H](O)[C@H](O)[C@H](O)C[C@H]2N1Cc1ccc(N2CCN(C)CC2)cc1
AC50 (Cytochrome P450 3A4): 31.6 µM (inconclusive)

O=C(COC(=O)c1ccc(Cl)c([N+](=O)[O-])c1)NC1CCCC1
IC50 (Fatty acid synthase [1]): 3.12 µM (active)
IC50 (Fatty acid synthase [2]): 3.41 µM (active)

COc1ccc([N+](=O)[O-])cc1C(=O)Nc1ccc(Cc2ccncc2)cc1
IC50 (Fatty acid synthase [1]): 10.9 µM (active)
IC50 (Fatty acid synthase [2]): 11.5 µM (active)

COc1ccc(OC2C(O)COC2/C=C/C#Cc2ccccc2)cc1 (stereo unspecified)
AC50 (Cytochrome P450 3A4): 3.98 µM (inconclusive)

COC(=O)c1ccc(CNC(=O)/C=C/c2cc([N+](=O)[O-])ccc2OC(F)F)cc1
IC50 (Fatty acid synthase [1]): 3.27 µM (active)
IC50 (Fatty acid synthase [2]): 4.91 µM (active)

COc1ccc(/C=C/C(=O)c2ccccc2)cc1COc1ccc(F)cc1
AC50 [5]: 17.1 µM (active)
EC50 (Protein RecA): 37.2 µM (active)

CC(=O)OCC(=O)[C@@]1(O)CCC2C3CC(C)C4=CC(=O)C=CC4(C)C3C(O)CC21C (stereo partly specified)
AC50 (Cytochrome P450 3A4): 12.6 µM (inconclusive)

Cc1nc(N2CCOCC2)c2nc(-c3ccccc3)n(CC(C)(C)CN(C)C)c2n1
AC50 (Cytochrome P450 3A4): 10 µM (inconclusive)

N#C/C(=C\c1ccc(-c2cccc([N+](=O)[O-])c2)o1)C(=O)NCCN1CCOCC1
IC50 (H9c2): > 79 µM (inactive)

CC(C)(C)c1ccc(CSc2ccc(S(=O)(=O)N3CCOCC3)cn2)cc1
IC50 (Fatty acid synthase [1]): 1.03 µM (active)
IC50 (Fatty acid synthase [2]): 0.683 µM (active)

COc1ccc2[nH]cc(CC(N)C(=O)O)c2c1 (stereo unspecified)
AC50 (Cytochrome P450 3A4): 31.6 µM (inconclusive)

COc1ccc(Cn2c(C)nc3ccc([N+](=O)[O-])cc3c2=O)cc1
IC50 (Fatty acid synthase [1]): 4.97 µM (active)
IC50 (Fatty acid synthase [2]): 3.61 µM (active)

Cc1ccc(OCC(=O)NCc2nnc(O)c3ccccc23)cc1
IC50 (H9c2): > 79 µM (inactive)

C[n+]1c(-c2ccccc2)cc(-c2ccc(Cl)cc2)cc1-c1ccccc1.[O-][Cl+3]([O-])([O-])[O-]
EC50 [3]: > 160 µM (inconclusive)
EC50 [4]: 0.756 µM (active)

Cn1ncc(Cl)c1C(=O)NNC(=O)Nc1cccc2ccccc12
EC50 [3]: > 160 µM (inactive)
EC50 [4]: > 38 µM (not active)

OC(COc1ccc2c(c1)OCO2)CN1CCCC1 (stereo unspecified)
EC50 [3]: 53.2 µM (active)

CCN(CC)CCn1c2c(c(SCC(=O)Nc3cccc(C(C)=O)c3)nc1=O)CCCC2
IC50 (H9c2): > 79 µM (inactive)

O=C(CSc1nc(O)c2ccccc2n1)N1CCCCCC1
IC50 (H9c2): 33 µM (inactive)

COc1ccc(C2NC(c3ccc(OC)cc3OC)C(C)C(=O)C2C)c(OC)c1 (stereo unspecified)
AC50 [5]: > 380 µM (inactive)
EC50 (Protein RecA): > 380 µM (inactive)
IC50 [8]: 116 µM (active)

CC(=O)O[C@@]1(C(C)=O)CCC2C3CC(C)C4=CC(=O)CC[C@@]4(C)C3CC[C@]21C (stereo partly specified)
AC50 (Cytochrome P450 3A4): 39.8 µM (inconclusive)

CSCCC(NC(=O)c1ccc(Cl)c([N+](=O)[O-])c1)C(=O)N1CCN(C/C=C/c2ccccc2)CC1 (stereo unspecified)
IC50 (Fatty acid synthase [1]): 8.52 µM (active)
IC50 (Fatty acid synthase [2]): 6.62 µM (active)

CC1CC(C)CN(C(=O)COC(=O)c2cc([N+](=O)[O-])ccc2N2CCOCC2)C1 (stereo unspecified)
IC50 (Fatty acid synthase [1]): 1.3 µM (active)
IC50 (Fatty acid synthase [2]): 1.22 µM (active)

CN(C(=O)COC(=O)c1cc([N+](=O)[O-])ccc1N1CCOCC1)C1CCCCC1
IC50 (Fatty acid synthase [1]): 0.383 µM (active)
IC50 (Fatty acid synthase [2]): 0.41 µM (active)

CC(=O)Nc1cc(-c2ccc(C(=O)N3CCOCC3)cc2)cn2c(-c3ccc(C(C)=O)cc3)cnc12
IC50 (H9c2): > 79 µM (inactive)

O=C(COC(=O)Cc1nnc(O)c2ccccc12)NNC(=O)c1ccc(Br)cc1
IC50 (H9c2): > 79 µM (inactive)

COc1ccc(C(=O)Nc2cccc(/C(C)=N/NC(=O)c3ccc([N+](=O)[O-])c(C)c3)c2)cc1OC
IC50 (H9c2): > 79 µM (inactive)

O=C1CCCC/C1=N\Nc1ccc(OCc2ccccc2)cc1
EC50 [3]: > 160 µM (inconclusive)
EC50 [4]: > 38 µM (not active)

O=[N+]([O-])c1ccc(N2CCOCC2)c2ccncc12
AC50 [5]: > 380 µM (inactive)
EC50 (Protein RecA): 12.2 µM (active)

CC(Nc1c[nH]c(=O)[nH]c1=O)c1ccccc1 (stereo unspecified)
AC50 [5]: 23.9 µM (active)
EC50 (Protein RecA): 15.5 µM (active)

O=C(CCCCCCCCCCCCC1CCCC1)Nc1ccc(S(=O)(=O)c2ccc(NC(=O)CCCCCCCCCCCCC3CCCC3)cc2)cc1 [CHAULMOSULFONE]
AC50 (Cytochrome P450 3A4): 31.6 µM (inconclusive)
